Assay results as given in patent publication US11465997B2, “Synthesis of disorazoles and analogs thereof as potent anticancer agents” (WILLIAM MARSH RICE UNIVERSITY, priority 2017, dated 2022).
Where two headings read alike, the source gives them in different places. Non-standard residues stand in square brackets, D forms with d. Residues, ends and D or L forms follow the SMILES beside them. *: point of attachment. Dolaproine = CO[C@@H]([C@@H]1CCCN1)[C@@H](C)C(=O)O; Dil = CC[C@H](C)[C@H](NC)[C@@H](CC(=O)O)OC; X1 = C[C@@H](N*)[C@@H](O)c1ccccc1; NMeV = CN[C@H](C(=O)O)C(C)C

How the values were obtained:
[1] = solubility of the product in solvents; type: physicochemical; details: e.g., MeOH, DMSO, DCM, CHCl3, MeCN
Experimental: To a stirred solution of compound 108 (9.0 mg, 9.0 μmol, 1.0 equiv) in DMF (300 μL) and H2O (2.3 μl, 130 μmol, 14 equiv) was added TASF (12 mg, 45 μmol, 5.0 equiv) and the reaction mixture was heated at 40° C. and stirred for 48 h. The resulting mixture was filtered through a small silica pad (10 cm, SiO2, hexanes:EtOAc 1:1→0:1). The resulting fractions containing the desired products were combined, concentrated and purified by flash column chromatography (SiO2, hexanes:EtOAc 1:1→1:4→0:1) to yield bis-(cp-thiazolyl)-disorazole B1 (7, 3.0 mg, 4.2 μmol, 46% yield) as a white foam. […] 86: Rf=0.15 (hexanes:EtOAc, 2:3); IR (film): vmax=3439, 2922, 2852, 1714, 1629, 1212, 1104, 964 cm^−1; ^1H NMR (600 MHz, DMSO-d6 with DCM) δ 8.37 (s, 2H), 6.45-6.37 (m, 2H), 6.21 (d, J=11.9 Hz, 2H), 6.15 (t, J=11.8 Hz, 2H), 5.66 (dd, J=14.1, 11.0 Hz, 2H), 5.60-5.49 (m, 4H), 5.39-5.31 (m, 2H), 5.23-5.11 (m, 4H), 4.64 (d, J=4.6 Hz, 2H), 3.73 (t, J=5.3 Hz, 2H), 2.70 (q, J=12.0 Hz, 2H), 2.29-2.22 (m, 2H), 2.22-2.13 (m, 2H), 1.82-1.73 (m, 2H), 1.64 (d, J=4.9 Hz, 6H), 0.96 (s, 6H), 0.88 (s, 6H), 0.60 (dd, J=10.4, 4.9 Hz, 4H) ppm; ^13C NMR (151 MHz, DMSO-d6 with DCM) δ 163.45, 159.37, 145.61, 142.90, 133.36, 131.70, 131.53, 127.55, 126.37, 125.78, 123.99, 118.18, 76.27, 75.30, 41.33, 27.65, 23.24, 19.05, 19.03, 18.95, 17.63, 16.64. ppm; HR-MS (ESI-TOF): calcd for C44H54O6N2S2Na^+ [M+Na]^+: 793.3316. […]

lung cancer cell lines = details: Jansen et al., 1994 and Elnakady et al., 2004, read-out: IC50 against lung cancer cell line; cited from earlier work
[2] = tested on: prostate cancer cell lines; details: Jansen et al., 1994 and Elnakady et al., 2004, read-out: IC50 against prostate cancer cell line; cited from earlier work
[3] = tested on: ovarian cancer cell lines; details: Jansen et al., 1994 and Elnakady et al., 2004, read-out: IC50 against ovarian cancer cell line; cited from earlier work
[4] = tested on: MES SA uterine sarcoma cell line; assay: 72 h killing (cytotoxicity) assay, MES SA; type: cell-based, human; details: MES SA cells, read-out: Cytotoxic activity IC50
[5] = tested on: MES SA DX (MES SA cell line with marked multidrug resistance); assay: 72 h killing (cytotoxicity) assay, MES SA DX; type: cell-based, human; details: MES DX (MES SA DX) cells, multidrug resistant, read-out: Cytotoxic activity IC50
[6] = 72 h killing (cytotoxicity) assay, HEK 293T; type: cell-based; details: human; 293T (HEK 293T) cells; read-out: Cytotoxic activity IC50

Q: Which “solubility in pure solvents” value [1] does the source give for `C/C=C/[C@H](O)C(C)(C)[C@@H]1C/C=C\[C@H]2C[C@H]2/C=C/C=C\c2nc(cs2)C(=O)O[C@H](C(C)(C)[C@@H](O)/C=C/C)C/C=C\[C@H]2C[C@H]2/C=C/C=C\c2nc(cs2)C(=O)O1` [compound 86, (2Z,4E,6S,8R,9Z,12S,19Z,21E,23S,25R,26Z,29S)-12,29-Bis[(3S,4E)-3-hydroxy-2-methylhex-4-en-2-yl]-13,30-dioxa-17,34-dithia-35,36-diazapentacyclo[30.2.1.1^15,18.0^6,8.0^23,25]hexatriaconta-1 (35),2,4,9,15,18 (36),19,21,26,32-decaene-14,31-dione] here?
A: Its value is “insoluble in most pure solvents”.

Q: With `C/C=C/[C@H](O)C(C)(C)[C@@H]1C\C=C/C=C\C=C\[C@H](OC)Cc2nc(co2)C(=O)O[C@H](C(C)(C)[C@@H](O)/C=C/C)C/C=C\[C@H]2O[C@H]2/C=C/C=C\c2nc(co2)C(=O)O1` [Disorazole A1, (2Z,4E,6S,8R,9Z,12S,20R,21E,23Z,25Z,28S)-12,28-Bis[(3S,4E)-3-hydroxy-2-methylhex-4-en-2-yl]-20-methoxy-7,13,17,29,33-pentaoxa-34,35-diazatetracyclo[29.2.1.1^15,18.0^6,8]pentatriaconta-1 (34),2,4,9,15,18 (35),21,23,25,31-decaene-14,30-dione] as the compound, how does the IC50 (lung cancer cell lines) read?
A: Its IC50 is 2.3 pM.

Q: What about the IC50 [2] of the same compound?
A: Its IC50 is 7.1 pM.

Q: And the IC50 [3]?
A: Its IC50 is 4.9 pM.

Q: Which results are given for `CC[C@H](C)[C@@H]([C@@H](CC(=O)N1CCC[C@H]1[C@H](OC)[C@@H](C)C(=O)N[C@H](C)[C@@H](O)c1ccccc1)OC)N(C)C(=O)[C@@H](NC(=O)[C@@H](NC)C(C)C)C(C)C` [MMAE, monomethyl auristatin E] (H-[NMeV]V[Dil][Dolaproine]-X1)?
A: IC50 [4]: 510 pM; IC50 [5]: 106000 pM

Q: For `C/C=C/[C@H](O)C(C)(C)[C@@H]1C\C=C/C=C\C=C\[C@H](OC)Cc2nc(co2)C(=O)O[C@H](C(C)(C)[C@@H](O)/C=C/C)C/C=C\[C@H]2C[C@H]2/C=C/C=C\c2nc(co2)C(=O)O1` [compound 5, (2Z,4E,6S,8R,9Z,12S,20R,21E,23Z,25Z,28S)-12,28-Bis[(3S,4E)-3-hydroxy-2-methylhex-4-en-2-yl]-20-methoxy-13,17,29,33-tetraoxa-34,35-diazatetracyclo[29.2.1.1^15,18.0^6,8]pentatriaconta-1 (34),2,4,9,15,18 (35),21,23,25,31-decaene-14,30-dione], which IC50 ([4]; Homo sapiens) is on record?
A: The IC50 was 110 pM.

Q: What about the IC50 ([5]; Homo sapiens) of the same compound?
A: The IC50 was 470 pM.

Q: What about the IC50 at 72 h [6] of the same compound?
A: Its IC50 at 72 h is 60 pM.
